Experimental data reported in PMC11009625, “Antibiotic class with potent in vivo activity targeting lipopolysaccharide synthesis in Gram-negative bacteria” (Proceedings of the National Academy of Sciences of the …, 2024).
In brackets after ≈: the same amount, converted by molar mass. Read-outs that look alike come from different tables or passages of the source.

Tests used:
[1] = Metabolic stability in human liver microsomes; format: in vitro ADME; details: pH 7.4
Description: (§1) Thermodynamic solubility was assessed by dissolving 2 to 3 mg of test compound to equilibrium in 100 mM KPO4-buffer, pH 7.4. The metabolic stability assay was performed in the presence of human and mouse liver microsomes by measurement of test compounds disappearance over time (60 min). The plasma protein binding assay, including stability estimation, was performed using the RED devices (Thermo Fisher Scientific) in the presence of human and mouse plasma. All samples from the in vitro ADME studies were quantified by liquid chromatography-triple quadrupole mass spectrometry (LC–MS/MS). The assays were performed as previously described ([36]) and the details are available in SI Appendix. Cytotoxicity was assessed by incubation of test compounds in the presence of HepG2 cells for 72 h as previously described ([37]). […]
(§2) The plate is then sealed, centrifuged and the supernatant is analysed by liquid
(§3) chromatography coupled to triple quadrupole mass spectrometry (LC-MS/MS).
(§4) Metabolic stability in the presence of human and animal liver microsomes. Metabolic stability
(§5) was determined in 0.5 mg/ml human or animal liver microsomes at a compound concentration
(§6) of 1 μM in 100 mM KPO4 buffer pH 7.4 in a total incubation volume of 500 μl. The reaction was
(§7) initiated by addition of 1 mM NADPH. At various incubation times, i.e. at 0, 5, 10, 20, 40 and 60
(§8) min, a sample was withdrawn from the incubation and the reaction was terminated by addition
(§9) of cold acetonitrile with warfarin as an internal standard. […]
(§10) Liquid chromatography coupled to triple quadrupole mass spectrometry (LC-MS/MS). The test
(§11) compounds were optimized on a Waters Acquity UPLC XEVO TQ-S micro system (Waters Corp.)
(§12) operating in multiple reaction monitoring (MRM) mode with positive or negative electrospray
(§13) ionization. Compounds were optimized by using the QuanOptimize software (Waters Corp.).
(§14) For chromatographic separation, a C18 BEH 1.7 µm column was used, with a general gradient of
(§15) 1% to 90% of mobile phase B over a total running time of 2 min. Mobile phase A consisted of
(§16) 5% acetonitrile and 0.1% formic acid in purified water, and mobile phase B of 0.1% formic acid
(§17) in 100% acetonitrile. The flow rate was set to 0.5 ml/min and 5 µL of the sample was injected.

[2] = Metabolic stability in mouse liver microsomes; format: in vitro ADME; details: pH 7.4
Description: as §1, §2, §3, §4, §5, §6, §7, §8, §9, §10, §11, §12, §13, §14, §15, §16, §17

Thermodynamic solubility = format: physicochemical; details: 37 °C, aqueous buffer, thermodynamic from solid; 100 mM KPO4-buffer, pH 7.4
Description: as §1, §2
chromatography coupled to triple quadrupole mass spectrometry (LC-MS/MS). […]
Thermodynamic solubility. Thermodynamic solubility assay utilized solid form of a test
compound. Solid test compound (~2-3 mg) was weighed in a glass HPLC vial and 100 mM KPO4-
buffer, pH 7.4 was added to give a theoretical max concentration if everything is dissolved of ~5-
6 mg/ml. The vial was incubated at 900 rpm, 37 °C in a rotational shaker for 24h. After the
incubation an aliquot (200 µl) was transferred to a glass insert and centrifuged at 10 000xg, 37 °C
for 20 min to separate any solid material from the solution. The supernatant was transferred to
a new HPLC vial and analysed by liquid chromatography coupled to triple quadrupole mass
as §10, §11, §12, §13, §14, §15, §16, §17

[3] = tested on: Staphylococcus aureus ATCC 29213; test: MIC, S. aureus; format: cell-based
Description: Minimum inhibitory concentration (MIC) values were determined according to the Clinical Laboratory Standards Institute guidelines. Frequency of resistance was determined by plating ~5 × 10^8 bacterial cells on agar-solidified media plates containing test compound at concentrations corresponding to four times the measured solid-media MIC of the strains. Colonies were counted after 24 h, restreaked onto media containing the same concentration of compound, and the MIC remeasured against the assayed compound. Genomic DNA from isolated clones was sequenced by paired-end sequencing on an Illumina MiSeq device. Complete experimental details available in SI Appendix.
Cytotoxicity. The cytotoxicity assay was performed in HepG2 cells as previously described(10) […]
Minimum inhibitory concentration (MIC) determination. Broth microdilution and agar dilution MIC assays were conducted according to CLSI guidelines (M07-2012). Appropriate inoculation suspension density was assessed using a Sensititre Nephelometer with a Sensititre 0.5 McFarland Standard. Serum MICs were conducted in 50% heat-inactivated pooled human serum (Sigma-Aldrich). Serum was heated to 56 °C for one hour and then filtered using a 0.2 µm […]
Hemolysis. Hemolysis was conducted as previously described (11).
Frequency of Resistance. Frequency of resistance was assessed by spread plating between […] cfu of a freshly-grown culture of the strain of interest on plates containing a concentration of compound corresponding to 4 times the MIC of the strain (as determined by agar-dilution MIC). […] The frequency of resistance was determined by dividing the number of colonies obtained on the selective plates after 24 hours of growth by the calculated total population plated. […]
Whole-genome sequencing and data analysis. […] Whole-genome sequencing data was analyzed using CLC Genomics Workbench Version 11. To determine the genotype of MDR strains from the ENABLE strain collection, de novo assembled contigs were analyzed using ResFinder (12–14) […]

[4] = ATCC29213, read-out: MIC S. aureus ATCC 29213

## Cc1cc(C#N)nc(N2CCN(S(=O)(=O)c3ccc(NC(=O)c4cc(CNCCCN)ccc4N(C)S(C)(=O)=O)cc3)CC2)n1.Cl.Cl [EBL-3599]
[1]
  microsomal CLint at 1 µM: < 5 µL/min/mg
[2]
  microsomal CLint at 1 µM: < 5 µL/min/mg
Thermodynamic solubility
  solubility thermodynamic at 24 h: 1530 µM
[3]; ATCC29213, WT, read-out: MIC S. aureus ATCC 29213
  MIC: > 64 µg/mL

## Cc1cc(C#N)nc(N2CCN(S(=O)(=O)c3ccc(NC(=O)c4cc(CN5CC(CN)C5)ccc4N(C)S(C)(=O)=O)cc3)CC2)n1 [EBL-3647]
[1]
  microsomal CLint at 1 µM: 3.1 µL/min/mg
[2]
  microsomal CLint at 1 µM: < 5 µL/min/mg
Thermodynamic solubility
  solubility thermodynamic at 24 h: 1090 µM (≈ 728 µg/mL)
[3]; [4]
  MIC: > 64 µg/mL

## CN(c1ccc(CNCCN)cc1C(=O)Nc1ccc(S(=O)(=O)N2CCN(c3cc(Cl)cc(Cl)c3)CC2)cc1)S(C)(=O)=O [EBL-3025]
[1]
  microsomal CLint at 1 µM: 42.2 µL/min/mg
[2]
  microsomal CLint at 1 µM: 31 µL/min/mg
Thermodynamic solubility
  solubility thermodynamic at 24 h: 4 µM (≈ 2.68 µg/mL)

## CN(c1ccccc1C(=O)Nc1ccc(S(=O)(=O)N2CCN(c3cccc(C(F)(F)F)c3)CC2)cc1)S(C)(=O)=O [JEDI-1444]
[1]
  microsomal CLint at 1 µM: 209 µL/min/mg
[2]
  microsomal CLint at 1 µM: 126 µL/min/mg
Thermodynamic solubility
  solubility thermodynamic at 24 h: 0.21 µM (≈ 0.125 µg/mL)
[3]; [4]
  MIC: > 64 µg/mL

## Cc1cc(C#N)nc(N2CCN(S(=O)(=O)c3ccc(NC(=O)c4ccccc4N(C)S(C)(=O)=O)cc3)CC2)n1 [EBL-3339]
[1]
  microsomal CLint at 1 µM: 551 µL/min/mg
[2]
  microsomal CLint at 1 µM: 625 µL/min/mg
Thermodynamic solubility
  solubility thermodynamic at 24 h: 1.2 µM (≈ 0.684 µg/mL)
